Laboratory results taken from ChEMBL document CHEMBL1201862, “PubChem BioAssay data set” (2004).
Active and inactive are the calls of the source.

Experiments:
[1] = Shn3 3'UTR reporter signal decrease – cell-based, Clone20 osteoblasts, firefly luciferase, cherry-pick, set 2, Schnurri-3 inhibitor project, dose response (AID 720490); assay type: functional;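 also: actives lower the luminescence signal as inhibitors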
[2] = reduction of Shn3 3'UTR-driven luciferase in osteoblasts – cell-based, Clone20 osteoblasts, firefly luciferase, cherry-picked, dose response (AID 624132); assay type: functional;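 also: firefly luciferase luminescence from reporter carrying the Shn3 3'UTR in osteoblasts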
[3] = Late stage counterscreen for inhibitors of Trypanosoma brucei methionyl tRNA synthetase (MetRS): Luminescence-based cell-based high throughput dose response assay to identify compounds that are cytotoxic to Jurkat human T lymphocyte cells.; assay type: functional
[4] = IC50 of Artemis nuclease activity blockers – biochemical, fluorescence intensity, dose response (AID 720701); assay type: functional;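 also: Artemis endonuclease enzyme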
Kallikrein-7 = Kallikrein-7 (Homo sapiens, UniProt P49862); assay: Fluorescence Intensity-based biochemical primary high throughput dose response assay to identify activators of kallikrein-7 (K7) zymogen.
Chain of Kallikrein-7 (P49862 whole entry): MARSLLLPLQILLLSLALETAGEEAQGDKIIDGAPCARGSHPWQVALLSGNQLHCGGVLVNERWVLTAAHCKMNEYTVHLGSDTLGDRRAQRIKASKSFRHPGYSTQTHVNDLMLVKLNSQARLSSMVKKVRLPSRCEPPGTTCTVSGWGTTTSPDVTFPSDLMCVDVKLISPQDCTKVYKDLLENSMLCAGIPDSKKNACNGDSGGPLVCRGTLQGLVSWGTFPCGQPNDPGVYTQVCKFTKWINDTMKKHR

Hexokinase HKDC1 = target: T1, Hexokinase HKDC1 (Homo sapiens, UniProt Q2TB90); assay: activation of HKDC1 glucose phosphorylation – biochemical, W721R variant, dose response (AID 504730); assay type: functional
T1 sequence (Q2TB90 whole entry): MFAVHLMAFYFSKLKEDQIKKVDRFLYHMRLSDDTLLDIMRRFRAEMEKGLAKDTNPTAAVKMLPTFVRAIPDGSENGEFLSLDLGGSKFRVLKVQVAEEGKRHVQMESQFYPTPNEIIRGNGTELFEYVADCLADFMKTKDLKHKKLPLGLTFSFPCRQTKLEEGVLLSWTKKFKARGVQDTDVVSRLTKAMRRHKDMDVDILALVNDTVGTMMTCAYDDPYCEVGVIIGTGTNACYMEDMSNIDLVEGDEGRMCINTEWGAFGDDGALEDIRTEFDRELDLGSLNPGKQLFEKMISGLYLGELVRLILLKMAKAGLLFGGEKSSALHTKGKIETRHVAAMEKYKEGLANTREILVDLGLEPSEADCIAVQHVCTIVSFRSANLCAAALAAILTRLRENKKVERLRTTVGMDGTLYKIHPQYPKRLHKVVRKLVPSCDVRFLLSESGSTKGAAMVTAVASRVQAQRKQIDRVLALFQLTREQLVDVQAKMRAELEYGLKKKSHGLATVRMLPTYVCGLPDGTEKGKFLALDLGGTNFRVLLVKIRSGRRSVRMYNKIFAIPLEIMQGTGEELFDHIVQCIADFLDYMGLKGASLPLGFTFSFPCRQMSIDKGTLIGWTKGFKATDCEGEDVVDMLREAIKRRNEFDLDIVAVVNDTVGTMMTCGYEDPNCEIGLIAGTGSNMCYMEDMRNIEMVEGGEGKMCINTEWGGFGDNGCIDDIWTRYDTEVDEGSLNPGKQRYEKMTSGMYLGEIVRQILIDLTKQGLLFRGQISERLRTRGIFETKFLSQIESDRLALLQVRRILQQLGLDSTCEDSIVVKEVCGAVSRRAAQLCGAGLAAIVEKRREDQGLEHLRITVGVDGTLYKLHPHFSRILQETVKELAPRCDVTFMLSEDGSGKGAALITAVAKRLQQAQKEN

[5] = target: Tyrosyl-DNA phosphodiesterase 2 (Homo sapiens, UniProt O95551); assay: potency against TDP2 phosphodiesterase activity – biochemical, epi absorbance, IC50, dose response (AID 743297)
Chain of Tyrosyl-DNA phosphodiesterase 2 (O95551 whole entry): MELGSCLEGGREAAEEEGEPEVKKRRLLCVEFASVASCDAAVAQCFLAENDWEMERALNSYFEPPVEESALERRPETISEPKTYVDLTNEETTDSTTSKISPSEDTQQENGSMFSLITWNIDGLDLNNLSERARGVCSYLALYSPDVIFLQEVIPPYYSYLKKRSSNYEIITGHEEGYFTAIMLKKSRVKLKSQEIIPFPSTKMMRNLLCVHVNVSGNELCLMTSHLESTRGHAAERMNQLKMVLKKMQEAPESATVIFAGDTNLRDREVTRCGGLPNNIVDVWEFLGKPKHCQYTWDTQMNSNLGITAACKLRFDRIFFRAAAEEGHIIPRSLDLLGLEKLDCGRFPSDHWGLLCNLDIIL

[6] = target: 1-phosphatidylinositol 4,5-bisphosphate phosphodiesterase beta-3 (Homo sapiens, UniProt Q01970); assay: Fluorescence-based biochemical high throughput dose response assay to identify inhibitors of phospholipase C isozymes (PLC-B3).
Chain of 1-phosphatidylinositol 4,5-bisphosphate phosphodiesterase beta-3 (Q01970 whole entry): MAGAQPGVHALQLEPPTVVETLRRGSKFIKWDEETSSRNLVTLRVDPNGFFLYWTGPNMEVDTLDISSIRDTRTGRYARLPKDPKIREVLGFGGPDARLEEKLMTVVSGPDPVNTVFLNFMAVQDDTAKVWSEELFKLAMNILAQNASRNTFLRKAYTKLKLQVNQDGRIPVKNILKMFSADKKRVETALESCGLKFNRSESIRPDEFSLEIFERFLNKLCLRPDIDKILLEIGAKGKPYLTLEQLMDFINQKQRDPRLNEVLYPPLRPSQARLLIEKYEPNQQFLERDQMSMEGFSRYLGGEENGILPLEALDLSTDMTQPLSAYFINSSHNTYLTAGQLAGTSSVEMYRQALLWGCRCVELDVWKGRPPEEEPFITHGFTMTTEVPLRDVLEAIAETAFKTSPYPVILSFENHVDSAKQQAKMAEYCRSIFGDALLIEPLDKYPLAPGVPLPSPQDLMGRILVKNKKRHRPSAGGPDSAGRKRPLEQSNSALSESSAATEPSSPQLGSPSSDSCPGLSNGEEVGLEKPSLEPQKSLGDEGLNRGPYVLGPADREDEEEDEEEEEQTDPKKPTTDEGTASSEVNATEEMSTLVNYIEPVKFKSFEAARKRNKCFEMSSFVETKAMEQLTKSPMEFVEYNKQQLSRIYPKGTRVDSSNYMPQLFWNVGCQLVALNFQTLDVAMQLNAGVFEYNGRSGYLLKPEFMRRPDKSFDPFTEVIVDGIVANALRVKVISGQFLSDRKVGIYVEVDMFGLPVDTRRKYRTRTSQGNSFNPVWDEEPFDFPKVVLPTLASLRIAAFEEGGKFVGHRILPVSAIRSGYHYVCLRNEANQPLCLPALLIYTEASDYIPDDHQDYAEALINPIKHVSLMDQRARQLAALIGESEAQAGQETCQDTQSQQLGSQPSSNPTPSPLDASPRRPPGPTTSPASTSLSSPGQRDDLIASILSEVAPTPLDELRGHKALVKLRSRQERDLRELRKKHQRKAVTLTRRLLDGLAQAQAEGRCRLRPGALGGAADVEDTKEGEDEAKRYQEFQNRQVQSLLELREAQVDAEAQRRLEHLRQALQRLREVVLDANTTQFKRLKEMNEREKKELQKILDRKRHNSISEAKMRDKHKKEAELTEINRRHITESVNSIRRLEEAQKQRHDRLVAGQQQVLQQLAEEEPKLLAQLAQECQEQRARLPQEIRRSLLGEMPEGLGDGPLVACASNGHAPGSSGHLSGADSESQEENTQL

Paired box protein Pax-8 = Paired box protein Pax-8 (Homo sapiens, UniProt Q06710); assay: PAX8 transcriptional activity inhibition in RMG-I – RMG-I cells, luciferase, cherry-pick, dose response (AID 687027); assay type: functional, cell-based;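 also: luciferase reporter driven by Pax8 target thyroperoxidase promoter measured by SteadyGlo luminescence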
Chain of Paired box protein Pax-8 (Q06710 whole entry): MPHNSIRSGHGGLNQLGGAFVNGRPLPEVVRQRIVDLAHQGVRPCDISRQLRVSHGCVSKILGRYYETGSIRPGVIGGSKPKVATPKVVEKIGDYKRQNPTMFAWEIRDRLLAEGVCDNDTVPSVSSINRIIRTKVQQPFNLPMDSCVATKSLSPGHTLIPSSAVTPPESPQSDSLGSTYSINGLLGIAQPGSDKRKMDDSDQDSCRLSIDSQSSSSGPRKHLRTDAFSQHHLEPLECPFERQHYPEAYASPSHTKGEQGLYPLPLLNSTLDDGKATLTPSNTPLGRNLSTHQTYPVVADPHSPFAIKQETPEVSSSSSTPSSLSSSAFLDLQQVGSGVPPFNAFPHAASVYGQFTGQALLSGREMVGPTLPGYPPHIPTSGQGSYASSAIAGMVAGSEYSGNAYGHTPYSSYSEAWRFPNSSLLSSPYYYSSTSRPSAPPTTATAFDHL

[7] = general cell-killing toxicity readout – plate reader, dry powder samples, cytotoxicity control for PAX8 inhibitor project, dose response (AID 743021); assay type: functional, cell-based
[8] = target: T2, Histone-lysine N-methyltransferase NSD2 (Homo sapiens, UniProt O96028); assay type: biochemical
T2 sequence (O96028 whole entry): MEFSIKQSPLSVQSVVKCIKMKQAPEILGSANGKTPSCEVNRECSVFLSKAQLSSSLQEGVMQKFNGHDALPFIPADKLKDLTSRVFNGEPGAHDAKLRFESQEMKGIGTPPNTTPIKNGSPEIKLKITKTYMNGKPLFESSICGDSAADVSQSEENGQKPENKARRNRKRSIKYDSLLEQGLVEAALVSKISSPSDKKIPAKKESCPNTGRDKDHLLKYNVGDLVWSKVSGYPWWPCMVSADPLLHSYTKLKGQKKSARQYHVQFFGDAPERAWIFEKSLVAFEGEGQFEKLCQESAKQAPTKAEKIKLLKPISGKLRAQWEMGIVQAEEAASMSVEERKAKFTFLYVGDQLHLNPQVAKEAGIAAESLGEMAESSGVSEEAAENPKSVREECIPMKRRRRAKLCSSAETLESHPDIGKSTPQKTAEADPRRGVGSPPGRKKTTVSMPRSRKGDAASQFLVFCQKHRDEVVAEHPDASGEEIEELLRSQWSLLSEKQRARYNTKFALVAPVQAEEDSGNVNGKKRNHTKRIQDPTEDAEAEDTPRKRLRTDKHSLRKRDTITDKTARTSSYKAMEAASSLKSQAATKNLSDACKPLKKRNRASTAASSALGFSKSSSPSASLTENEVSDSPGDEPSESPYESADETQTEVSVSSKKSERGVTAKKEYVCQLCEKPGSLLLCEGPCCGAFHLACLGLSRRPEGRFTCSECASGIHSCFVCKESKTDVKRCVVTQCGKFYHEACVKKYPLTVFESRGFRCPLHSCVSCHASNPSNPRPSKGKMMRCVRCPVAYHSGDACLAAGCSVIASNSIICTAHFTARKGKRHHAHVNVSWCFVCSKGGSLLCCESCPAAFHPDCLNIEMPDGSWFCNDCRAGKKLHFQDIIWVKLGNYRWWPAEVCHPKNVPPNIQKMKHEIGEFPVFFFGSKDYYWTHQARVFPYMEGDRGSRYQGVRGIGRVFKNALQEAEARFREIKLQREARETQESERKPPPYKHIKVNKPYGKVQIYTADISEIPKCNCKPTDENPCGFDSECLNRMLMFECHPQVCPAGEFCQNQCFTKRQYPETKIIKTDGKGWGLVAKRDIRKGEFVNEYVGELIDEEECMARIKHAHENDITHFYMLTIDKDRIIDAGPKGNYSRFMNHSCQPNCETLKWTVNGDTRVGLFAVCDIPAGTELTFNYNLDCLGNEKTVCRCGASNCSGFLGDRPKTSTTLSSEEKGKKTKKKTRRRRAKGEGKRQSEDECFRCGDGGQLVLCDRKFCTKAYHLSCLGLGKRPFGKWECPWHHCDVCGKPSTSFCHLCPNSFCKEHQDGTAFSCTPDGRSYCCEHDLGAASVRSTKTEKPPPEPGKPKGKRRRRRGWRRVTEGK

Hexokinase-1 = target: T3, Hexokinase-1 (Homo sapiens, UniProt P19367); assay: HK1 enzyme activation by HKDC1 hits – biochemical, selectivity assay for HKDC1 activator project, dose response (AID 504762); assay type: functional
T3 sequence (P19367 whole entry): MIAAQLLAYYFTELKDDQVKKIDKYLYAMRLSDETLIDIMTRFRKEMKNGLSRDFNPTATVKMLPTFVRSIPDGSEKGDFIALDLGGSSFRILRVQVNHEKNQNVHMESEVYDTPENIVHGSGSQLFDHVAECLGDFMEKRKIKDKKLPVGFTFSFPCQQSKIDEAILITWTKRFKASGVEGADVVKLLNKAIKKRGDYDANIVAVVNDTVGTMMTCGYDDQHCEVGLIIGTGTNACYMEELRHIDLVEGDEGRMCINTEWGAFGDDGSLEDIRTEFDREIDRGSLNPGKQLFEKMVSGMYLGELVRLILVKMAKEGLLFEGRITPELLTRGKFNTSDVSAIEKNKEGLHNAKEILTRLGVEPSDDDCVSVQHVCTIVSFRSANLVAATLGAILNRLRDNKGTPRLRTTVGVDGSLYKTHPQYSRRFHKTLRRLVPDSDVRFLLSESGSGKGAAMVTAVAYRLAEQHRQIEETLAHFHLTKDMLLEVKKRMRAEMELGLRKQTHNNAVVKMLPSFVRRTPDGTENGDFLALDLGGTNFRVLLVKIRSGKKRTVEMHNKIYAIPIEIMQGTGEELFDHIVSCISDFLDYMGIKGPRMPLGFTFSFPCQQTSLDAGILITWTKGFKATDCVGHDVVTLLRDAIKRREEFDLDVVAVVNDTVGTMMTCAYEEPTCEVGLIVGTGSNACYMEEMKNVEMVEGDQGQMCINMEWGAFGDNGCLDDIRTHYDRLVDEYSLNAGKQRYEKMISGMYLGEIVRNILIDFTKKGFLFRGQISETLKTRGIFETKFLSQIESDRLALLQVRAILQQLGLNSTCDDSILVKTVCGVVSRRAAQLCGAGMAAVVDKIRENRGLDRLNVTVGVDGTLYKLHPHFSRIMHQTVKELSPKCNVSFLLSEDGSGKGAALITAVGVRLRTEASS

[9] = target: 1-phosphatidylinositol 4,5-bisphosphate phosphodiesterase gamma-1 (Homo sapiens, UniProt P19174); assay: Counterscreen for inhibitors of phospholipase C isozymes (PLC-B3): Fluorescence-based biochemical high throughput dose response assay to identify inhibitors of phospholipase C isozymes (PLC-gamma1).
Chain of 1-phosphatidylinositol 4,5-bisphosphate phosphodiesterase gamma-1 (P19174 whole entry): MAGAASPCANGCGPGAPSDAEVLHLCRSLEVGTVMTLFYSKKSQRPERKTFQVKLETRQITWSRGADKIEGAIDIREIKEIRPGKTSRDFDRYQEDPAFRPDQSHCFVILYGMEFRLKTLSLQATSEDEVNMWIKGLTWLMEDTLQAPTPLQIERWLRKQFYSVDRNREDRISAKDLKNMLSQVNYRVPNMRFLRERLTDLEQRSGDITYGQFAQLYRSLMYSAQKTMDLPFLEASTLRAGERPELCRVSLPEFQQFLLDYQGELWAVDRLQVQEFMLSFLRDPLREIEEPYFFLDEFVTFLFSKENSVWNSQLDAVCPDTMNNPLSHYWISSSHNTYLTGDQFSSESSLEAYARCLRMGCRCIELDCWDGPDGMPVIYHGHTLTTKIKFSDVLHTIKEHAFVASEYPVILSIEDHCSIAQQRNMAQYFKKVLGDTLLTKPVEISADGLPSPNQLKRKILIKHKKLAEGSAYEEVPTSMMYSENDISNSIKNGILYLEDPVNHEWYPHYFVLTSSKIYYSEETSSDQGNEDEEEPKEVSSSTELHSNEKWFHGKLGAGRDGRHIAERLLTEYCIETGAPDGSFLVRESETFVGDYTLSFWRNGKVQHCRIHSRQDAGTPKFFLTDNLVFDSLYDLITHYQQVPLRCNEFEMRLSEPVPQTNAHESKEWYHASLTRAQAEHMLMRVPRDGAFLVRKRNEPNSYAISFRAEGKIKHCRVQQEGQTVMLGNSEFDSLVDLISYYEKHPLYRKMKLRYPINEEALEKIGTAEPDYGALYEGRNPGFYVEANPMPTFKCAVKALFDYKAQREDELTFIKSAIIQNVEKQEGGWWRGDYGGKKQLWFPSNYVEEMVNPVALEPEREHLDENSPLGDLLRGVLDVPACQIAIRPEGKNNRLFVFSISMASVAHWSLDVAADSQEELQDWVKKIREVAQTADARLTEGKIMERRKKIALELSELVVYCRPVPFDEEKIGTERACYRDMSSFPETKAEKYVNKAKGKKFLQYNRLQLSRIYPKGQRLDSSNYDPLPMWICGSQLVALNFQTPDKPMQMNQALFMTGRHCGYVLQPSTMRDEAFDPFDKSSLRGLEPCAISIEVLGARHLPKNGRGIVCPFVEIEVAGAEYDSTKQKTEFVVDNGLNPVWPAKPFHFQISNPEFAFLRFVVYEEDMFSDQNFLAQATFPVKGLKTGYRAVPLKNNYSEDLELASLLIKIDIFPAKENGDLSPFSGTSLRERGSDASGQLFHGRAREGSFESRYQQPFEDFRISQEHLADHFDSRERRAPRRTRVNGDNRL

[10] = target: T4, NAD-dependent protein deacylase sirtuin-5, mitochondrial (Homo sapiens, UniProt Q9NXA8); assay: blockers of sirtuin-5 peptide desuccinylation – biochemical, fluorescence imaging, cherry-pick, set 6, dose response (AID 720597)
T4 sequence (Q9NXA8 whole entry): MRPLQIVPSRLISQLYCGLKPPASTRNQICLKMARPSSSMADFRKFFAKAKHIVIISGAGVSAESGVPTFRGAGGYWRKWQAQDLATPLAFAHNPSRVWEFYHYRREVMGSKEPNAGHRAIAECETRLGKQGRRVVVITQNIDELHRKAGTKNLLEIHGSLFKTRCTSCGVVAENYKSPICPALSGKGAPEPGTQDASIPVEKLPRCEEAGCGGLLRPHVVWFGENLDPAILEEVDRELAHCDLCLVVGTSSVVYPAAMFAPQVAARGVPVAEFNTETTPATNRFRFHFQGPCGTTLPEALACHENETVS

[11] = reduced cellular PGC1a acetyl-lysine signal – cell-based, cherry-picked samples, dose response (AID 720514); assay type: functional;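 also: potency may reflect raised or lowered acetylation signal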
[12] = cytotoxicity in MITF-independent A375 cells – cell-based, CellTiter-Glo luminescence, dry powder, set 4, counter-screen for MITF inhibitor project, dose response (AID 624364); assay type: functional; settings: A-375;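 also: A375 melanoma cells are MITF independent so this is a counter screen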
[13] = viability loss in MITF-independent A375 cells – cell-based, CellTiter-Glo luminescence, dry powder, set 2, counter-screen for MITF inhibitor project, dose response (AID 624489); assay type: functional; settings: A-375;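 also: actives are compounds lowering A375 viability meaning general cytotoxicity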
[14] = anti-trypanosomal activity in BESM host cells – imaging, CA-I/72 strain, bovine embryo skeletal muscle, dry powder, dose response (AID 651885); assay type: functional, cell-based
[15] = T. cruzi growth inhibition in host cells, dose response, cell-based, plate reader, dry powder, set 2 (AID 652275); assay type: functional
[16] = Trypanosoma cruzi replication inhibitors in host cells – cell-based, plate reader, dry powder samples, dose response (AID 651845); assay type: functional
Vasopressin V1b receptor = Vasopressin V1b receptor (Homo sapiens, UniProt P47901); assay: Late-stage results from the probe development effort to identify antagonists of arginine vasopressin receptor 1a (AVPR1a): fluorescence-based cell-based dose response AVPR1b inhibition counterscreen assay.; assay type: functional
Chain of Vasopressin V1b receptor (P47901 whole entry): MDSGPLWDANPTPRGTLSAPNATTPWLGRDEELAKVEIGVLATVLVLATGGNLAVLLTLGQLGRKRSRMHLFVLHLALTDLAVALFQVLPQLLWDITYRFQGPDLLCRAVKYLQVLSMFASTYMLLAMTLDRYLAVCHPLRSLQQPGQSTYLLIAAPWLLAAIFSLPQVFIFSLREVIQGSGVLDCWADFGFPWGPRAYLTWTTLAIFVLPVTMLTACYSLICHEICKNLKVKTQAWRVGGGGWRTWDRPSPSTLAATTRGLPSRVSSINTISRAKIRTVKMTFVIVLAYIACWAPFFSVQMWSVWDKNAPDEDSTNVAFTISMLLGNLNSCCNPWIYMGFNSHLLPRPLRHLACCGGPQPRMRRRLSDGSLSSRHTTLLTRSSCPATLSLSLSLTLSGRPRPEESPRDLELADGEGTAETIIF

[17] = Late-stage results from the probe development effort to identify antagonists of arginine vasopressin receptor 1a (AVPR1a): fluorescence-based cell-based dose response OXTR inhibition counterscreen assay.; assay type: functional
[18] = Late-stage results from the probe development effort to identify antagonists of arginine vasopressin receptor 1a (AVPR1a): fluorescence-based cell-based dose response AVPR1a inhibition assay.; assay type: functional
Vasopressin V2 receptor = Vasopressin V2 receptor (Homo sapiens, UniProt P30518); assay: Late-stage results from the probe development effort to identify antagonists of arginine vasopressin receptor 1a (AVPR1a): fluorescence-based cell-based dose response AVPR2 inhibition counterscreen assay.; assay type: functional
Chain of Vasopressin V2 receptor (P30518 whole entry): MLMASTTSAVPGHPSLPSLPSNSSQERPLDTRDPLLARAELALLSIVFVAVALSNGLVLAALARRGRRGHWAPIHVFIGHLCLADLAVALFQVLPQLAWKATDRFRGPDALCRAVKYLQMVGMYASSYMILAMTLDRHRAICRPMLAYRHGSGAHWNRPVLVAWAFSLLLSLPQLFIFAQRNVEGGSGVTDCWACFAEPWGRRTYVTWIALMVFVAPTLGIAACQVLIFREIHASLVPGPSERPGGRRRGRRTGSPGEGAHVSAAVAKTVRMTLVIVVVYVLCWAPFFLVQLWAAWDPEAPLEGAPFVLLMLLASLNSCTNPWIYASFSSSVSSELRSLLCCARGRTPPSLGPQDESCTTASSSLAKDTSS

[19] = target: T4, NAD-dependent protein deacylase sirtuin-5, mitochondrial; assay: sirtuin-5 deacylation blockers, concentration series – biochemical, fluorescence imaging, cherry-pick, set 5, dose response (AID 720591);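 also: desuccinylation of succinyl peptide AMC substrate read as fluorescence after trypsin release; potency of inhibitors that lower fluorescence and may act on trypsin instead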
[20] = liver cell line viability loss – HepG2, luminescence plate reader, powder samples, set 2, cytotoxicity control, dose response (AID 651860); assay type: functional, cell-based

For `CC(Oc1ccc(F)cc1)C(=O)N(CCC1=CCCCC1)c1c(N)n(Cc2ccccc2)c(=O)[nH]c1=O` (stereo unspecified), the AC50 [1] was 22.6 µM (active) and the AC50 [2] was 7.99 µM (active).

With `CC(CC(=O)Nc1cccc(Br)c1)=NNC(=O)c1ccc(O)cc1O` the IC50 [3] was > 83.3 µM (inactive).

In the case of `Cc1ccc(CNC(=O)c2cc3c(=O)n4ccccc4nc3n(Cc3ccco3)c2=N)cc1`, the IC50 [4] is reported as 17.3 µM (active).

With `CC(=O)Nc1ccc2[nH]c(-c3cccs3)nc2c1` the EC50 (Kallikrein-7) was 8.78 µM (active).

With `NC1=C(Cl)C(=O)c2ccc(S(N)(=O)=O)cc2C1=O` the EC50 (Hexokinase HKDC1) was > 80 µM (inactive), the IC50 [5] was 1.07 µM (active) and the IC50 [6] was > 122 µM (inactive). For the same compound, the AC50 (Paired box protein Pax-8) was 1.47 µM (active), the AC50 [7] was 8.31 µM (active) and the AC50 [8] was 144 nM (active). The EC50 (Hexokinase-1) was 1.06 µM (active) and the IC50 [9] was > 122 µM (inactive).

For `C[C@@H]1CN([C@H](C)CO)C(=O)CCCn2nncc2CO[C@H]1CN(C)S(=O)(=O)c1ccc(Cl)cc1`, the AC50 [10] was 26.7 µM (active).

For `CC(C)NC(=O)Nc1ccc2c(c1)C(=O)N([C@@H](C)CO)C[C@H](C)[C@@H](CN(C)C(=O)CCC(F)(F)F)OCCCC[C@@H](C)O2`, the AC50 [11] was 38 µM (active).

In the case of `O=C1C(NS(=O)(=O)c2cccs2)=C(N2CCCCC2)C(=O)c2ccccc21`, the AC50 [12] is reported as > 70 µM (inactive) and the AC50 [13] is reported as > 70 µM (inactive).

With `CC(C)N(C)C(=O)c1cccc(NC(=O)c2ccncc2)c1OCCCN(C)Cc1ccc(Oc2ccccc2)cc1` the IC50 [14] was 10.1 µM (inconclusive), the AC50 [15] was 381 nM (active) and the AC50 [16] was 386 nM (active).

For `Cc1ccc(N(CC2CC2)C(=O)N2CCN(c3ccccc3C)CC2)cc1`, the IC50 (Vasopressin V1b receptor) was 17.6 µM (inactive), the IC50 [17] was 82 nM (active) and the IC50 [18] was 6.9 nM (active). For the same compound, the IC50 (Vasopressin V2 receptor) was 2.22 µM (active).

With `COc1ccc(CN2C(=O)C(CC(=O)NCCc3ccccn3)CC(C(=O)N3CCOCC3)=C2C)cc1` (stereo unspecified) the AC50 [19] was > 30 µM (inactive).

With `NC(=O)[C@H]1CCCC[C@H]1C(=O)N1CCc2ccccc2[C@H]1CN1C(=O)c2ccccc2C1=O` the AC50 [20] was > 52 µM (inactive).
